Data reported in patent US20090048190A1, “Antiviral activity and resolution of 2-hydroxymethyl-5(5-fluorocytosin-1-yl)-1,3-oxathiolane” (priority 1990, published 2009).
Like-named read-outs stand apart in the source and are kept apart here.

Columns and labels:
[1] = system: HIV-2; test: Antiretroviral activity in different cell systems, HIV-2; assay type: cell-based; settings: PBMC (ROD2)
Method: Cell lines were obtained from either human donors, AIDS Research and Reference Reagent Program, NIH, Rockville, Md., ATCC, or the Red Cross. The CEM thymidine kinase deficient cells were prepared by sequential passage of CEM cells in the presence of 5-bromo-2′-deoxyuridine.

[2] = system: human PBM cells; settings: 10 μM radiolabeled FTC
Method: All studies were conducted in duplicate. […] Cells were exposed to the drug for 2, 6, 12, and 24 hours. At these timepoints, the medium was removed and the cells were washed two times with cold Hank's balanced salt solution. Extraction was performed with addition of 0.2 ml of 60% cold methanol/water and stored overnight at −70° C. The following morning, the suspensions were centrifuged and extractions were repeated two times for 0.5 hours at −70° C. The total supernatants (0.6 ml) were lyophilized to dryness. The residues were resuspended in 250 μl of water and aliquots of between 50 and 100 μl were analyzed by HPLC. Quantitation of intracellular parent drug and metabolic derivatives were conducted by HPLC.

[3] = system: HIV-1 (strain LAV); assay type: cell-based
Description: It is often desirable to screen a number of racemic mixtures of nucleosides as a preliminary step to determine which warrant further resolution into enantiomerically enriched components and further evaluation of antiviral activity. The ability of nucleosides to inhibit HIV can be measured by various experimental techniques. The technique used herein, and described in detail below, measures the inhibition of viral replication in phytohemagglutinin (PHA) stimulated human peripheral blood mononuclear (PBM) cells infected with HIV-1 (strain LAV). The amount of virus produced is determined by measuring the virus-coded reverse transcriptase enzyme. The amount of enzyme produced is proportional to the amount of virus produced.
A. Three-day-old phytohemagglutinin-stimulated PBM cells (10^6 cells/ml) from hepatitis B and HIV-1 seronegative healthy donors were infected with HIV-1 (strain LAV) at a concentration of about 100 times the 50% tissue culture infectious dose (TICD 50) per ml and cultured in the presence and absence of various concentrations of antiviral compounds.
B. Approximately one hour after infection, the medium, with the compound to be tested (2 times the final concentration in medium) or without compound, was added to the flasks (5 ml; final volume 10 ml). AZT was used as a positive control.
C. The cells were exposed to the virus (about 2×10^5 dpm/ml, as determined by reverse transcriptase assay) and then placed in a CO2 incubator. HIV-1 (strain LAV) was obtained from the Center for Disease Control, Atlanta, Ga. The methods used for culturing the PBM cells, harvesting the virus and determining the reverse transcriptase activity were those described by McDougal et al. (J. Immun. Meth. 76, 171-183, 1985) and Spira et al. (J. Clin. Meth. 25, 97-99, 1987), except that fungizone was not included in the medium (see Schinazi, et al., Antimicrob. Agents Chemother. 32, 1784-1787 (1988); Id., 34:1061-1067 (1990)).
D. On day 6, the cells and supernatant were transferred to a 15 ml tube and centrifuged at about 900 g for 10 minutes. Five ml of supernatant were removed and the virus was concentrated by centrifugation at 40,000 rpm for 30 minutes (Beckman 70.1 Ti rotor). The solubilized virus pellet was processed for determination of the levels of reverse transcriptase. Results are expressed in dpm/ml of sampled supernatant. Virus from smaller volumes of supernatant (1 ml) can also be concentrated by centrifugation prior to solubilization and determination of reverse transcriptase levels.

[4] = system: Vero cells
[5] = system: CEM cells
[6] = CSF/serum ratio in rhesus monkeys; assay type: in vivo; settings: 33.3 mg/kg, one hour after administration
[7] = system: FIV; test: Antiretroviral activity in different cell systems, FIV; assay type: cell-based; settings: CrFK (61E)
[8] = system: uninfected human PBM cells
Description: The cells were counted after 6 days using a hemacytometer and the trypan blue exclusion method, as described by Schinazi et al., Antimicrobial Agents and Chemotherapy, 22(3), 499 (1982).

[9] = system: other cell lines
[10] = Pharmacokinetics after intravenous administration to rats
[11] = system: HIV; test: microbe, parasite or virus in culture; assay type: cell-based; settings: MT4 system
[12] = system: HepG2 cells; settings: 10 μM [3H]-(±)-FTC

**Q.** For `Nc1nc(=O)n([C@@H]2CS[C@H](CO)O2)cc1F` (racemic) [(±)-FTC, (±)-β-D,L-2-hydroxymethyl-5-(5-fluorocytosin-1-yl)-1,3-oxathiolane], which EC50 [1] is on record?
**A.** The EC50 was 3.8 nM.

**Q.** And the “uptake in human lymphocytes” value [2]?
**A.** The value was “readily taken up”.

**Q.** What about the “% Inhibition (Corrected)” value ([3]; 0.0001 μM) of the same molecule?
**A.** Its value is 26.6%.

**Q.** And the DPM/ml ([3]; 0.0001 μM)?
**A.** The DPM/ml was 73,755 DPM/ml.

**Q.** What about the “% Inhibition (Corrected)” value ([3]; 0.005 μM) of the same molecule?
**A.** The value was 16.3%.

**Q.** What about the DPM/ml ([3]; 0.005 μM) of the same molecule?
**A.** The DPM/ml was 83,005 DPM/ml.

**Q.** What about the “% Inhibition (Corrected)” value ([3]; 0.01 μM) of the same molecule?
**A.** Its value is 41.3%.

**Q.** What about the DPM/ml ([3]; 0.01 μM) of the same molecule?
**A.** The DPM/ml was 60,465 DPM/ml.

**Q.** And the “% Inhibition (Corrected)” value ([3]; 0.05 μM)?
**A.** The value was 70.4%.

**Q.** And the DPM/ml ([3]; 0.05 μM)?
**A.** The DPM/ml was 34,120 DPM/ml.

**Q.** And the “% Inhibition (Corrected)” value ([3]; 0.1 μM)?
**A.** The value was 92.4%.

**Q.** What about the DPM/ml ([3]; 0.1 μM) of the same molecule?
**A.** Its DPM/ml is 14,160 DPM/ml.

**Q.** What about the “% Inhibition (Corrected)” value ([3]; 0.5 μM) of the same molecule?
**A.** The value was 88.1%.

**Q.** What about the DPM/ml ([3]; 0.5 μM) of the same molecule?
**A.** Its DPM/ml is 18,095 DPM/ml.

**Q.** What about the “% Inhibition (Corrected)” value ([3]; 1 μM) of the same molecule?
**A.** Its value is 99.7%.

**Q.** And the DPM/ml ([3]; 1 μM)?
**A.** The DPM/ml was 7,555 DPM/ml.

**Q.** And the “% Inhibition (Corrected)” value ([3]; 5 μM)?
**A.** The value was 99.3%.

**Q.** What about the DPM/ml ([3]; 5 μM) of the same molecule?
**A.** Its DPM/ml is 7,940 DPM/ml.

**Q.** What about the “% Inhibition (Corrected)” value ([3]; 10 μM) of the same molecule?
**A.** Its value is 101.7%.

**Q.** And the DPM/ml ([3]; 10 μM)?
**A.** Its DPM/ml is 5,810 DPM/ml.

**Q.** What about the EC50 ([3]; PBM cells, read-out: activity in PBM cells) of the same molecule?
**A.** The EC50 was roughly 10 nM.

**Q.** What about the EC50 ([3]; enantiomers resolved by HPLC (Example 4), Table 4, read-out: EC50) of the same molecule?
**A.** The EC50 was 18 nM.

**Q.** What about the EC50 ([3]; enantiomers resolved by method of Example 3, FIG. 6, read-out: EC50) of the same molecule?
**A.** The EC50 was 17 nM.

**Q.** And the EC50 ([3]; human PBM cells, HIV-1 strain LAV, Table 3, read-out: Antiviral EC50)?
**A.** Its EC50 is 10 nM.

**Q.** What about the toxicity [4] of the same molecule?
**A.** The toxicity was greater than 100 µM.

**Q.** What about the toxicity [5] of the same molecule?
**A.** The toxicity was greater than 100 µM.

**Q.** And the “ability to cross the blood-brain barrier” value [6]?
**A.** The value was “significant amount of active compound passes through the blood-brain barrier”.

**Q.** And the EC50 [7]?
**A.** Its EC50 is no more than 1000 nM.

**Q.** And the IC50 [8]?
**A.** Its IC50 is greater than 100000 nM.

**Q.** What about the VSS (I.V., 33.3 mg/kg, individual monkeys (RUh, RMi, RJd)) of the same molecule?
**A.** The VSS was 2.00 L/kg.

**Q.** What about the “F (bioavailability)” value (P.O., 33.3 mg/kg, individual monkeys (RUh, RMi, RJd)) of the same molecule?
**A.** Its value is 80%.

**Q.** What about the “plasma terminal half life” value (rhesus monkeys, mean of oral and I.V. administration) of the same molecule?
**A.** Its value is “approximately 1.34±0.18”.

**Q.** What about the “nontoxic at concentrations up to” value [9] of the same molecule?
**A.** Its value is “up to 200 μM”.

**Q.** What about the CLT ([10]; 10 mg/kg) of the same molecule?
**A.** The CLT was 16.5 mL/min/kg.

**Q.** And the CLT ([10]; 50 mg/kg)?
**A.** Its CLT is 14.6 mL/min/kg.

**Q.** And the MRT ([10]; 50 mg/kg)?
**A.** The MRT was 48 min.

**Q.** And the CLT ([10]; 100 mg/kg)?
**A.** Its CLT is 13.8 mL/min/kg.

**Q.** And the IC50 [11]?
**A.** The IC50 was 520 nM.

**Q.** And the “uptake by HepG2 cells” value [12]?
**A.** Its value is “taken up by HepG2 cells in large amounts”.
